# Where two headings read alike, the source gives them in different places.
# Experiments:
# [1] = Relative potency against chloroform induced fibrillation in mice, subcutaneous (Table IV); type: in vivo; details: 20 min, statistical mean (confidence limits)
# Experimental: (§1) The experiments on mice were performed according to a modification of the method described by J. W. Lawson, "Antiarrhythmic activity of some isoquinoline derivatives determined by a rapid screening procedure in the mouse," J. Pharm. Exp. Therap. Vol. 160, pp. 22-31 (1968). This method is based upon the observation that when an unanesthetized, untreated mouse is exposed to chloroform vapor its respiration soon ceases and at that time both electrocardiographic and visual inspection reveal that the cardiac ventricles are fibrillating. If the mouse is treated appropriately with known antiarrhythmic agents prior to exposure to chloroform, the respiratory failure is not accompanied by ventricular fibrillation.
# The procedure used was a modification of the method previously described. The modification involved using a standard time of 20 minutes for each test run and four different doses of the same drug. Route of administration was subcutaneous.
# [2] = Ventricular arrhythmias in unanesthetized dogs after coronary artery ligation (modified Harris method), 3-amino-2',6'-butyroxylidide (Table VI); type: in vivo
# From the text: (§2) Vol. 1, pp. 1318-1328 (1950). […] The electrocardiographic, cardiovascular and other drug effects were monitored.
# The electrocardiographic, cardiovascular and other drug effects were monitored.
# mice = assay: Ataxia in mice just before CHCl3 challenge, oral (Table I); type: in vivo; details: LD0.1 dose
# From the text: Immediately after cessation of respiration each mouse was removed from the beaker, its thorax was opened and its heart was examined for the presence of absence of ventricular fibrillation. The nature of the cardiac rhythm was then confirmed by electrocardiographic recordings. Whenever fibrillation was not evident, the heart was touched with forceps. The heart was considered as fibrillating if fine tremulous movements were present on the surface of the ventricle and persisted for at least 5 seconds after the thoracotomy or the mechanical stimulus. Ventricular fibrillation was considered absent in those animals in which coordinated ventricular activity was evident following such procedures.
# [3] = Antifibrillatory effect in mice: protection against chloroform-induced ventricular fibrillation, oral (Table I); type: in vivo, female Swiss albino mice (HAM/ICR)
# Experimental: as §1
# [4] = cited from earlier work
# [5] = Response of unanesthetized dogs to intravenous infusion on first day after coronary artery ligation (Table III)
# Experimental: In this method the dogs were anesthetized, the heart was exposed, and the anterior descending branch of the left coronary artery was ligated in two stages. The thorax was closed and the dog was allowed to recover from the anesthesia. […] The electrocardiographic, cardiovascular and other drug effects were monitored.
# The dosage schedule was: 1st hr.: 15 mg/kg/hr; 2nd hr.: 30 mg/kg/hr; 3rd hr.: 60 mg/kg/hr. Infusions were stopped at the first sign of toxicity other than emesis.
# [6] = type: in vivo, dogs; details: for Overt toxicity: convulsions, onset / Overt toxicity: emesis / Overt toxicity: nystagmus / Overt toxicity: other / Overt toxicity: tremors / Overt toxicity: convulsions, duration: po
# From the text: as §2
# [7] = mouse, in vivo
# frog sciatic nerve = assay: In vitro local anesthetic effect on frog sciatic nerve; details: 20 mM solution, after exposure for 96 min
# [8] = Expected antiarrhythmic oral dosage in humans; type: in vivo
# [9] = intravenous, first day after ligation
# [10] = oral and intravenous doses, unanesthetized dogs
# [11] = i.v. infusion, cumulative, one value per dog
smiles,measurement,setting,value
"Cc1cccc(C)c1NC(=O)CC(C)N (centres unmarked) [3-amino-2',6'-butyroxylidide]",Relative potency (ED50 test compound/ED50 lidocaine),[1],0.99 (0.60-1.9)
same,adverse reactions,"[2]; dog, in vivo",unaccompanied by any discernible adverse reactions
same,Toxicity: convulsions,[2]; [9],None
same,Toxicity: deaths,[2]; [9],None
same,suppression of the ventricular arrhythmias,[2]; [10],distinct suppression of the ventricular arrhythmias
C=C[C@H]1C[N@@]2CC[C@H]1C[C@@H]2[C@@H](O)c1ccnc2ccc(OC)cc12 [QUINIDINE],Proportion of mice in each group having ataxia just before CHCl3 challenge,mice; 20 min,0/10
same,Proportion of mice in each group having ataxia just before CHCl3 challenge,mice; 40 min,2/10
same,death,mice; 40 min group,1 death
same,death,mice; 80 min group,1 death
same,Proportion of mice in each group protected against fibrillation at LD0.1,[3]; 20 min before CHCl3 challenge,10/10
same,Proportion of mice in each group protected against fibrillation at LD0.1,[3]; 40 min before CHCl3 challenge,9/9
same,Proportion of mice in each group protected against fibrillation at LD0.1,[3]; 80 min before CHCl3 challenge,9/9
CCN(CC)CCNC(=O)c1ccc(N)cc1 [PROCAINAMIDE],Proportion of mice in each group having ataxia just before CHCl3 challenge,mice; 5 min,0/10
same,Proportion of mice in each group having ataxia just before CHCl3 challenge,mice; 10 min,0/10
same,Proportion of mice in each group having ataxia just before CHCl3 challenge,mice; 20 min,0/10
same,Proportion of mice in each group protected against fibrillation at LD0.1,[3]; 5 min before CHCl3 challenge,0/10
same,Proportion of mice in each group protected against fibrillation at LD0.1,[3]; 10 min before CHCl3 challenge,1/10
same,Proportion of mice in each group protected against fibrillation at LD0.1,[3]; 20 min before CHCl3 challenge,0/10
"CCN(CC)CC(=O)Nc1c(C)cccc1C [lidocaine, 2-diethylamino-2',6'-acetoxylidide]",duration of blood levels,[4]; lidocaine,fairly short
same,oral effectiveness,"[4]; oral, due to low levels of the drug in the blood",not orally effective
same,loss of the drug after oral administration,"[4]; oral, probably due to the functions of the liver",pronounced loss of the drug
same,Proportion of mice in each group having ataxia just before CHCl3 challenge,mice; 10 min,0/10
same,Proportion of mice in each group having ataxia just before CHCl3 challenge,mice; 20 min,9/10
same,Proportion of mice in each group having ataxia just before CHCl3 challenge,mice; 40 min,0/10
same,Proportion of mice in each group having ataxia just before CHCl3 challenge,mice; 80 min,0/10
same,minimal effective dose,"[5]; Canis lupus familiaris, iv, read-out: Antiarrhythmic doses (cumul.), i.v. infusion, cumulative, one value per dog",36 mg/kg
same,Antiarrhythmic doses (cumul.),[5]; [11],55 mg/kg
same,Number of dogs showing antiarrhythmic effect,"[5]; i.v. infusion, dogs tested: lidocaine 2, 2-amino-2',6'-propionoxylidide 1, abnormal beats < 5% of total",2
same,Duration of antiarrhythmic effect,"[5]; i.v. infusion, return of 50% of suppressed abnormal ventricular beats, one value per dog",5 min
same,Proportion of mice in each group protected against fibrillation at LD0.1,[3]; 10 min before CHCl3 challenge,9/10
same,Proportion of mice in each group protected against fibrillation at LD0.1,[3]; 20 min before CHCl3 challenge,10/10
same,Proportion of mice in each group protected against fibrillation at LD0.1,[3]; 40 min before CHCl3 challenge,7/10
same,Proportion of mice in each group protected against fibrillation at LD0.1,[3]; 80 min before CHCl3 challenge,0/10
"Cc1cccc(C)c1NC(=O)C(C)N (racemic) [2-amino-2',6'-propionoxylidide]",Relative potency (ED50 test compound/ED50 lidocaine),[1],0.33 (0.20-0.54)
same,Proportion of mice in each group having ataxia just before CHCl3 challenge,mice; 20 min,10/10
same,Proportion of mice in each group having ataxia just before CHCl3 challenge,mice; 40 min,10/10
same,Proportion of mice in each group having ataxia just before CHCl3 challenge,mice; 80 min,8/10
same,Proportion of mice in each group having ataxia just before CHCl3 challenge,mice; 160 min,5/10
same,Toxic doses (cumul.),[5]; [11],81 mg/kg
same,Proportion of mice in each group protected against fibrillation at LD0.1,[3]; 20 min before CHCl3 challenge,9/10
same,Proportion of mice in each group protected against fibrillation at LD0.1,[3]; 40 min before CHCl3 challenge,9/10
same,Proportion of mice in each group protected against fibrillation at LD0.1,[3]; 80 min before CHCl3 challenge,10/10
same,Proportion of mice in each group protected against fibrillation at LD0.1,[3]; 160 min before CHCl3 challenge,9/10
same,adverse reactions,"[6]; dog, in vivo",unaccompanied by any discernible adverse reactions
same,"Overt toxicity: convulsions, onset","[6]; dog, in vivo, 50 mg/kg",None
same,Overt toxicity: emesis,"[6]; dog, in vivo, 50 mg/kg",None
same,Overt toxicity: nystagmus,"[6]; dog, in vivo, 50 mg/kg",None
same,Overt toxicity: other,"[6]; dog, in vivo, 50 mg/kg",None
same,Overt toxicity: tremors,"[6]; dog, in vivo, 50 mg/kg",None
same,"Overt toxicity: convulsions, onset","[6]; dog, in vivo, 100 mg/kg",None
same,Overt toxicity: emesis,"[6]; dog, in vivo, 100 mg/kg",None
same,Overt toxicity: nystagmus,"[6]; dog, in vivo, 100 mg/kg",None
same,Overt toxicity: other,"[6]; dog, in vivo, 100 mg/kg",None
same,Overt toxicity: tremors,"[6]; dog, in vivo, 100 mg/kg",None
same,"Overt toxicity: convulsions, onset","[6]; dog, in vivo, 150 mg/kg",None
same,Overt toxicity: nystagmus,"[6]; dog, in vivo, 150 mg/kg",None
same,Overt toxicity: other,"[6]; dog, in vivo, 150 mg/kg",None
same,Overt toxicity: tremors,"[6]; dog, in vivo, 150 mg/kg",None
same,"Overt toxicity: convulsions, duration","[6]; dog, in vivo, 200 mg/kg",> 3 min
same,Overt toxicity: nystagmus,"[6]; dog, in vivo, 200 mg/kg",None
same,Overt toxicity: other,"[6]; dog, in vivo, 200 mg/kg",None
same,"Overt toxicity: convulsions, duration","[6]; dog, in vivo, 300 mg/kg",17 min
same,"Overt toxicity: convulsions, onset","[6]; dog, in vivo, 300 mg/kg",None
same,Overt toxicity: emesis,"[6]; dog, in vivo, 300 mg/kg",None
same,Overt toxicity: nystagmus,"[6]; dog, in vivo, 300 mg/kg",None
same,Overt toxicity: other,"[6]; dog, in vivo, 300 mg/kg",None
same,Overt toxicity: tremors,"[6]; dog, in vivo, 300 mg/kg",None
same,suppression of the ventricular arrhythmias,[6]; [10],distinct suppression of the ventricular arrhythmias
same,"Maximum antiarrhythmic activity, partial clearing, onset","[6]; oral, cumul. dose 50 mg/kg as HCl, 50-95% reduction of abnormal ventricular beats",None
same,convulsions incidence,[7]; 251 mg/kg,34%
same,block of the action potential of the nerve,frog sciatic nerve,does not block the action potential at all
same,dosage that should be effective for humans,[8],about 6 grams/day
CCNC(C)C(=O)Nc1c(C)cc(C)cc1C (centres unmarked) [secondary amine],ataxia incidence,[7],100%
same,convulsions incidence,[7],90%

# From patent US4237068A, “Primary aminoacylanilides” (priority 1978, dated 1980)
